Measurements: US7964556B1, “Antimicrobial peptides and use thereof” (Toagosei Co., Ltd, priority 2004, dated 2011)
Where a SMILES comes first, the peptide text is derived from it.

Tests used:
Format in all cases: cell-based
Escherichia coli = details: 24 h
Description: (§1) Regarding the antimicrobial peptide in samples 1 to 14 and the comparative sample 1, the antimicrobial activities (minimum inhibitory concentration: MIC) with respect to gram-negative bacteria (Escherichia coli) and gram-positive bacteria (Staphylococcus aureus) were determined, as described below, by a liquid medium dilution technique using a 96-well microplate. First, a drug (synthesized peptide) solution having a concentration of 40 times of the highest test concentration was prepared using sterile distilled water, and thereafter liquid-bouillon mediums (“NUTRIENT BROTH Dehydrated” manufactured by DIFCO) having peptide concentrations of 200, 100, 50, 25, 12.5, 6.25, 3.13, 1.56 and 0.78 μM were produced respectively. The produced liquid-bouillon mediums including the peptide of each concentration were then fed to the 96-well microplate at 100 μL a time.
(§2) At the same time, test bacteria cultured for 18 hours at 37° C. on an agar plate (“Muller Hinton Agar” manufactured by DIFCO) were gathered by scratching with a loop, and then suspended in a sterilized physiological saline. Bacterial suspension 5 μL prepared at an equivalent of 2×10^7 cells/mL was respectively inoculated (number of bacteria to be tested: approximately 1×10^6 cells/mL) onto the above-described liquid-bouillon mediums including the peptide of each concentration and fed to each well of the above-described microplate. After inoculation, the microplate was then incubated in an incubator at 37° C., and the presence of bacteria was evaluated based on the turbidity 24 hours later. The minimum drug concentration (peptide concentration), in which an increased in turbidity caused by bacteria was not detected at the time of measurement, was defined as MIC (minimum inhibitory concentration) (unit: μM) in the present embodiment.

Staphylococcus aureus = details: for Antimicrobial Activities (MIC) S. aureus: 24 h; for antimicrobial activities against gram-positive bacteria (S. aureus), in words: summary of Table 2
Description: as §1, §2

sheep's erythrocytes = test system: sheep's erythrocytes
Description: A test on the hemolytic activity of 2 kinds of synthesized peptides (sample 9 and sample 10) in example 1 was performed and served as indicator of the effects of these peptides on animal cell (erythrocyte). The hemolytic activity test in the present example was performed as follows. Specifically, sample peptides were dissolved in PBS (pH7.4), and thereafter 10 stages of twice diluted strains (sample solutions) with peptide concentration of 400, 200, 100, 50, 25, 12.5, 6.25, 3.13, 1.56 and 0.78 μM were prepared. Here, PBS was used as a control of 0% hemolysis, and PBS containing 0.1% of triton X-100 was used as a control of 100% hemolysis. Erythrocyte of fiber-free sheep's blood was then added to these sample solutions such that the volume ratio (v/v) was 1% of these sample solutions. After adding the above-described red blood cells, the sample solutions were incubated for 1 hour at 37° C., and thereafter the hemolysis was ceased with cold water. Next, centrifugal separation at 3000 rpm was performed for […] at 4° C.
After centrifugal separation, each supernatant was fed to the 96-well microplate, and absorbency under 540 nm wavelength was determined. The hemolytic rate (%) was then calculated by the following formula based on the results determined: {(Aexp−A0)/A100}×100. […]

S. aureus = test system: S. aureus
Description: Next, the antimicrobial activities (MIC) against gram-positive bacteria (S. aureus) in the presence of serum and high concentration of cation were tested with the same method as Example 2. However, only the above-described sample 9 was used as the test peptide. Specifically, a drug (synthesized peptide of sample 9) solution having a concentration of 40 times of the highest test concentration was prepared using sterile distilled water. Thereafter, MHB mediums (“Mueller Hinton Broth” manufactured by DIFCO) including high concentration of cation with peptide concentrations of 50, 25, 12.5, 6.25, 3.13, 1.56 and 0.78 μM were produced respectively. The cation included was prepared as follows: dissolving 3.68 g of CaCl2.2H2O in 100 mL of purified water (10 mg.Ca^2+/mL), and thereafter adding 500 μL thereof into 100 mL of Mueller Hinton Broth; and dissolving 8.36 g of MgCl2.6H2O in 100 mL of purified water (10 mg.Mg^2+/mL), and thereafter adding 250 μL thereof into 100 mL of Mueller Hinton Broth.
Mediums (hereinafter “MHB serum mediums including high concentration of cation”) were further prepared by adding horse serum (mechanically sterilized Nippon Biotest Laboratories inc. product), which made up of 10% volume ratio of the entire medium, into the MHB mediums including high concentration of cation. The MHB serum mediums including high concentration of cation had peptide concentrations of 50, 25, 12.5, 6.25, 3.13, 1.56 and 0.78 μM.
Next, the above-described MHB mediums including high concentration of cation and having peptide of each concentration, and the above-described MHB serum mediums including high concentration of cation and having peptide of each concentration were fed to the 96-well microplate at 100 μL a time, and the MIC were determined using the same method as example 2. As comparison, commercially available MHB mediums having peptide concentration of 50, 25, 12.5, 6.25, 3.13, 1.56 and 0.78 μM were used.

Row | SMILES | Antimicrobial Activities (MIC) E. coli (Escherichia coli) | Antimicrobial Activities (MIC) S. aureus (Staphylococcus aureus) | antimicrobial activities against gram-positive bacteria (S. aureus), in words (Staphylococcus aureus) | hemolytic activities, in words (sheep's erythrocytes) | Antimicrobial Activities (MIC) against S. aureus, MHB (S. aureus) | Antimicrobial Activities (MIC) against S. aureus, MHB + Cation (S. aureus) | Antimicrobial Activities (MIC) against S. aureus, MHB + Cation + Horse Serum (S. aureus)
1 | CC(C)[C@H](NC(=O)[C@H](C)NC(=O)[C@@H](NC(=O)[C@H](CCCCN)NC(=O)[C@H](CCCCN)NC(=O)[C@@H](NC(=O)[C@H](CCCCN)NC(=O)[C@H](CCCNC(=N)N)NC(=O)[C@H](CCCCN)NC(=O)[C@H](CCCCN)NC(=O)[C@H](CCCCN)NC(=O)[C@@H](N)CCCNC(=N)N)C(C)C)C(C)C)C(=O)N[C@H](C(=O)N[C@@H](CCCNC(=N)N)C(=O)N[C@H](C(N)=O)[C@@H](C)O)C(C)C [Sample 10, RKKKRKVKKVAVVRT] (H-RKKKRKVKKVAVVRT-NH2) | 12.5 µM | 3.13 µM | particularly high antimicrobial activities | significantly low |  |  | 
2 | CC[C@H](C)[C@H](NC(=O)[C@H](CCC(N)=O)NC(=O)[C@@H](NC(=O)[C@H](CCCCN)NC(=O)[C@@H](NC(=O)[C@H](CCCCN)NC(=O)[C@H](CCCNC(=N)N)NC(=O)[C@H](CCCCN)NC(=O)[C@H](CCCCN)NC(=O)[C@H](CCCCN)NC(=O)[C@@H](N)CCCNC(=N)N)C(C)C)C(C)C)C(=O)N[C@H](C(=O)N[C@@H](CC(N)=O)C(=O)N[C@@H](CCCCN)C(=O)N[C@@H](CCCCN)C(N)=O)[C@@H](C)CC [Sample 9, RKKKRKVKVQIINKK] (H-RKKKRKVKVQIINKK-NH2) | 3.13 µM | 0.78 µM | particularly high antimicrobial activities | significantly low | 3.13 µM | 3.13 µM | 3.13 µM
